{
  "source": "patent US20260240819A1",
  "about": "“KAT6 INHIBITOR METHODS AND COMBINATIONS FOR CANCER TREATMENT” (Pfizer Inc., priority 2020, published 2026)",
  "key": {"[1]": {"tested_on": "estradiol response genes in T47D cells", "test": "RNA-Seq gene set enrichment analysis", "type": "cell-based", "conditions": "20 nM, 6-day treatment, GSEA", "experimental": "The following day, cells were treated with vehicle control (DMSO) or COMPOUND C at 20 nM concentration. Media and compounds were refreshed three days later for a total of 6-day treatment. At the end of the 6-day treatment, cells were harvested by trypsinization and lysed in Buffer RLT (Qiagen, Cat No./ID 79216)^+β-mercaptoethanol. RNA lysates were submitted for RNA sequencing (“RNA-Seq”) (WuXi NextCODE®).\nRNA-Seq data analysis: Adapter sequences were trimmed off from the Illumina raw reads, provided by WuXi NextCODE®, using Trimmomatic (v0.36) for paired-end reads, and low-quality reads were filtered out. Reads remaining after the pre-processing step were mapped to the reference genome hg38 using STAR (v2.6.0c). Gene level expression was quantitated as expected counts and transcripts per million (TPM) using “rsem-calculate-expression” of RSEM (v1.3.0) with default parameters. Differential expression analysis of robustly expressed genes (max expression across samples >=10) was performed using DESeq2 (v1.18.1) package. Gene set enrichment analysis (GSEA, v3.0) was conducted using GseaPreranked option. Genes were ranked based on signedlog10pval. Gene set collections (c2.all.v6.1) from Molecular Signatures Database (MSigDB) were used in this analysis."}, "T47D cells [2]": {"tested_on": "T47D cells", "test": "Proliferation colony formation assay (SRB stain)", "type": "cell-based", "experimental": "(§1) T47D, ZR-75-1, or MCF7 cells were seeded into 6-well tissue culture plates at 10% seeding confluence (100,000-150,000 cells per well). After allowing 18-24 hours for the cells to attach to the wells, growth media was aspirated and discarded and new growth media containing 0-20 μM of either COMPOUND A or COMPOUND B was added in 2-fold increments of descending concentration from 20 μM to the cells (proliferation assay). In parallel, seeded cultures with the same titration of the KAT6 inhibitors was added to the cells. 500 nM palbociclib was also added for each concentration of the KAT6 inhibitors (palbociclib recovery assay). The cultures were incubated 12-14 days and treated with these inhibitors/inhibitor combinations. Growth media containing the inhibitors was replaced on the cell cultures every 3-4 days (twice per week).\nFor the KAT6 inhibitor treated T47D cultures (proliferation assay), after 12 days the vehicle (DMSO) treated cultures were >90% confluent and the cell cultures were SRB stained as described in Example 3. The stained 6-well plates were scanned using an Epson Perfection V600 Photo Scanner and Epson Scan version 3.9.2.0 software. To quantitate SRB staining in each 6-well culture, the cultures were destained with 2 mL 10 mM Tris pH 7.5 per well and the absorbance at 565 nm (O.D. 565) of the released stain was measured using a SpectraMax Plus plate reader and SoftMaxPro 5.4.3 software. Inhibition of T47D cell proliferation by both COMPOUND A and COMPOUND B were equivalent with 50% proliferation inhibition observed with 10 μM of the KAT6 inhibitors (FIGS. 8A and 8C).\nCells were plated at low density into 6-well culture dishes and allowed to attach overnight at 37° C., 5% CO2. The next day, in parallel to the proliferation set, palbociclib was added at a final concentration of […] to another set of plates, which served as the set for palbociclib recovery. To both proliferation and palbociclib recovery plates, DMSO or KAT6 inhibitor was added into each well at increasing doses. Medium and KAT6 inhibitor were refreshed twice a week. Cells were cultured for about two weeks of drug treatment until the DMSO-treated wells reached confluency. At the end of treatment, cells were washed once with phosphate-buffered saline and were fixed and stained with SRB for visualization followed by quantification. […] Wells were fixed and stained with SRB for visualization followed by quantification. To quantify the stain, stained cells were dissolved in 2 mL of 10 mM Tris-HCl, pH 7.5 and shaken for 10 min on a shaker. Samples were then diluted with 10 mM Tris-HCl, pH 7.5, transferred to a 96-well microtiter plate in a volume of 100 μL and read on SpetraMax at 565 nm."}, "[3]": {"tested_on": "ERα and Cyclin D1 in T47D cells", "test": "Western blot after KAT6 inhibitor dose titration", "type": "cell-based", "conditions": "increasing concentrations, 14 days", "experimental": "Cells were plated at 10,000 cells per well into 6-well culture dishes and allowed to attach overnight at 37° C., 5% CO2. The next day, either COMPOUND C or COMPOUND D was added to wells at increasing concentrations, in addition to DMSO as vehicle control. Cells were cultured for 14 days with medium and KAT6 inhibitor refreshed twice a week (every 3-4 days). At the end of drug treatment, one million cells were collected via trypsinization for protein lysates. Cells were lysed in 100 μL 1× LDS buffer diluted from 4× LDS buffer (ThermoFisher catalog #NP0007) with reducing agent (ThermoFisher catalog #NP0009). The lysates were subsequently sonicated and loaded onto a NuPAGE 4-12% Bis-Tris gel (ThermoFisher, catalog #NP0321BOX) followed by electrophoresis. Gels were then transferred onto a nitrocellulose membrane (iBlot2, ThermoFisher). Membranes were blocked and incubated overnight at 4° C. with following antibodies: anti-ERα (D8H8) Rabbit mAb (#8644, Cell Signaling) and anti-β-actin (8H10D10) mouse mAb (Cell Signaling, #3700S). […]"}, "ZR-75-1 cells": {"tested_on": "ZR-75-1 cells", "test": "Proliferation colony formation assay (SRB stain)", "type": "cell-based", "experimental": "as §1\nFor the ZR-75-1 and MCF7 experiments, only COMPOUND A was tested. For the single agent treated ZR-75-1 cultures the vehicle treated cultures were >90% confluent after 12 days of treatment. These cultures were SRB stained, scanned, and destained/measured as described above. […] After 22 days of recovery, the ZR-75-1 cultures that had been treated with single agent 500 nM palbociclib were >90% confluent and these palbociclib recovery assay cultures were SRB stained, scanned, and destained/measured as described above.\nCells were plated at low density into 6-well culture dishes and allowed to attach overnight at 37° C., 5% CO2. […] At the end of treatment, cells were washed once with phosphate-buffered saline and were fixed and stained with SRB for visualization followed by quantification. […] Wells were fixed and stained with SRB for visualization followed by quantification. To quantify the stain, stained cells were dissolved in 2 mL of 10 mM Tris-HCl, pH 7.5 and shaken for 10 min on a shaker. Samples were then diluted with 10 mM Tris-HCl, pH 7.5, transferred to a 96-well microtiter plate in a volume of 100 μL and read on SpetraMax at 565 nm."}, "[4]": {"test": "Bodyweight and health monitoring, PDX ST941 study", "type": "in vivo, female athymic nude mice", "conditions": "relative to day 0", "experimental": "(§2) Combination studies with palbociclib, fulvestrant and the KAT6 inhibitor, Compound E (KAT6i), were performed in two ER+ breast cancer PDX models: ST340 and ST941. ST340 was wildtype for ESR1. […] Both studies were conducted by XenoSTART (San Antonio, Texas), where 6-12 week-old female athymic nude mice (JAX, stock #007850) were subcutaneously implanted with ~70 mg tumor fragments. Animals were supplemented with exogenous estradiol ad libitum via drinking water throughout the duration of the studies. Tumor measurements and animal weights were captured twice per week, and animals were stratified and enrolled into the study when the mean tumor volume (TV, formula: width^2×length×0.5) reached 150-300 mm^3.\n(§3) Each study contained eight treatment groups of n=10 animals per group. The groups were as follows: 1) Vehicle (5% DMSO/40% PEG300/55% 1×PBS), 2) Compound E, 3) palbociclib, 4) fulvestrant, 5) palbociclib+fulvestrant, 6) Compound E +fulvestrant, 7) Compound E+palbociclib, and 8) Compound E+palbociclib+fulvestrant. Animals remained on study and were continued on treatments until the mean tumor volume of each group reached ~1500 mm^3. At that point, the final dose was administered, animals were sacrificed, and terminal samples were collected. Blood microsamples were collected from each group for pharmacokinetics (PK) analysis at 0, 3, and 7 hrs (n=3/timepoint) on day 14 of dosing and again on the terminal day of dosing.\n(§4) Analysis of covariance (ANCOVA) was used to determine statistical significance when comparing percent TGI between groups. Changes in bodyweights were calculated in relation to starting bodyweights at study initiation (day 0 of treatment)."}, "[5]": {"test": "Bodyweight and health monitoring, PDX ST340 study", "type": "in vivo, female athymic nude mice", "conditions": "relative to day 0", "experimental": "as §2, §3, §4"}, "MCF7 cells": {"tested_on": "MCF7 cells", "test": "Palbociclib growth arrest and recovery, cell counts", "type": "cell-based", "conditions": "MCF7, 500 nM palbociclib", "experimental": "T47D and MCF7 were confirmed as ER+ breast cancer cell lines using short tandem repeat (“STR”) testing (ATCC STR profiling service). […] After 6 and 14 days of palbociclib treatment, the cells in each well were suspended by trypsinization and cell densities were measured by cell counter. For the additional MCF7 cultures that were treated, in parallel, for either 6 or 14 days with 500 nM palbociclib, the palbociclib was washed off the cells and they were allowed 7-8 days to recover. After this recovery period, the cells were suspended by trypsinization and the cell densities of each suspension were measured. Similar to the T47D cells, palbociclib treatment stably arrested MCF7 cells for up to 14 days of treatment (FIG. 1B). However, after removing palbociclib from the MCF7 cultures treated for either 6 or 14 days, the cells readily re-entered the cell cycle and proliferated."}, "CAMA1 cells": {"tested_on": "CAMA1 cells", "test": "Profiling of the response of CAMA1 to palbociclib", "type": "cell-based"}, "[6]": {"tested_on": "ER+ breast cancer PDX model ST340", "test": "PDX tumor growth inhibition study", "type": "in vivo, female athymic nude mice", "conditions": "doses per Table 7; for % TGI Delta: PDX ST340, day 21, compared to Vehicle", "experimental": "as §2, §3, §4"}, "T47D cells [7]": {"tested_on": "T47D cells", "test": "Palbociclib growth arrest and recovery, cell counts", "type": "cell-based", "conditions": "500 nM palbociclib", "experimental": "T47D and MCF7 were confirmed as ER+ breast cancer cell lines using short tandem repeat (“STR”) testing (ATCC STR profiling service). […] After allowing 18-24 hours for the cells to attach to the plates, 500 nM palbociclib was added to each culture. Growth media and palbociclib was refreshed twice per week (every 3-4 days). […] For T47D cultures, the cells were suspended by trypsinization from triplicate cultures on days 1, 14, and 24 of palbociclib treatment and the cell density of each suspension was measured using a Vi-Cell XR cell counter. In a separate experiment, three additional T47D cultures were treated for 14 days with 500 nM palbociclib, then the palbociclib was washed off the cells and the cells were allowed to recover for 10 days. After 10 days of recovery, the cells were suspended by trypsinization and the cell density of each suspension was measured by cell counter."}, "[8]": {"tested_on": "ERα protein in MCF7 cells", "test": "Western blot after palbociclib treatment", "type": "cell-based", "conditions": "MCF7, 500 nM palbociclib, 8 days", "experimental": "(§5) Cells were seeded into 6-well culture plates and allowed to attach overnight at 37° C., 5% CO2. […] Medium was refreshed every 3 days. At 3, 6 and 8 days of treatment, cells were harvested for protein and RNA lysates."}, "[9]": {"tested_on": "ERα protein in T47D cells", "test": "Western blot after palbociclib treatment", "type": "cell-based", "conditions": "500 nM palbociclib, 8 days", "experimental": "as §5"}},
  "data": [
    {"smiles": "COc1cccc(OC)c1S(=O)(=O)Nc1noc2cc(Cn3cccn3)cc(OC)c12", "note": "[COMPOUND C, 2,6-dimethoxy-N-{4-methoxy-6-[(1H-pyrazol-1-yl)methyl]-1,2-benzoxazol-3-yl}benzene-1-sulfonamide]", "values": [
      {"measurement": "NES (Normalized Enrichment Score), estradiol-induced genes", "setting": "[1]", "result": "−9,92"},
      {"measurement": "NES (Normalized Enrichment Score), estradiol-repressed genes", "setting": "[1]", "result": 6.27},
      {"measurement": "Kind of effect on cell growth", "setting": "T47D cells [2]; dose titration", "result": "cytostatic"},
      {"measurement": "Maximal reduction of growth", "setting": "T47D cells [2]; single agent, about two weeks", "result": "about 40%"},
      {"measurement": "ERα and Cyclin D1 protein", "setting": "[3]", "result": "dose-dependent depletion"},
      {"measurement": "IC50", "setting": "ZR-75-1 cells; Homo sapiens, ZR-75-1, ZR75-1, single agent, about two weeks, read-out: Concentration giving 50% growth inhibition", "result": "~3.9", "unit": "nM"},
      {"measurement": "Kind of effect on cell growth", "setting": "ZR-75-1 cells; ZR75-1, dose titration", "result": "strong dose-dependent cytotoxic effect"}
    ]},
    {"smiles": "CC(=O)c1c(C)c2cnc(Nc3ccc(N4CCNCC4)cn3)nc2n(C2CCCC2)c1=O", "note": "[Palbociclib, 6-acetyl-8-cyclopentyl-5-methyl-2-(5-piperazin-1-yl-pyridin-2-ylamino)-8H-pyrido[2,3-d]pyrimidin-7-one]", "values": [
      {"measurement": "Day 17 mean change in bodyweight", "setting": "[4]", "result": "−1", "unit": "%"},
      {"measurement": "Maximum mean bodyweight loss", "setting": "[4]", "result": "−3", "unit": "%"},
      {"measurement": "Day 21 mean change in bodyweight", "setting": "[5]", "result": "−2", "unit": "%"},
      {"measurement": "Maximum mean bodyweight loss", "setting": "[5]", "result": "−3", "unit": "%"},
      {"measurement": "Effect on cell cycle", "setting": "MCF7 cells", "result": "complete cell cycle arrest"},
      {"measurement": "Reversibility of growth arrest", "setting": "MCF7 cells; after withdrawal", "result": "reversible upon palbociclib withdrawal"},
      {"measurement": "Effect of single agent treatment on proliferation", "setting": "CAMA1 cells", "result": "irreversible proliferation arrest"},
      {"measurement": "% TGI Delta", "setting": "[6]", "result": 43.7, "unit": "%"},
      {"measurement": "% TGI Delta", "setting": "[6]; listed as palbociclib", "result": "~ 40%"},
      {"measurement": "Mean ± SEM (day 21)", "setting": "[6]; PDX ST340, tumor volume (mm^3)", "result": "1051.4 ± 134"},
      {"measurement": "Effect on cell cycle", "setting": "T47D cells [7]", "result": "complete cell cycle arrest"},
      {"measurement": "Reversibility of growth arrest", "setting": "T47D cells [7]; after withdrawal", "result": "reversible upon palbociclib withdrawal"},
      {"measurement": "Reduction of ERα protein level", "setting": "[8]", "result": "about 50%"},
      {"measurement": "Reduction of ERα protein level", "setting": "[9]", "result": "about 50%"}
    ]}
  ]
}
